According to patent US20110301153A1, “METHODS OF TREATING CANCER” (The Trustees of the University of Pennsylvania, priority 2008, published 2011):

How the values were obtained:
Assay type in all cases: cell-based, human
[1] = system: SF188 cells stably expressing Bcl-xL; assay: Akt/PI3K inhibitor treatment, media metabolite analysis (glucose, lactate, glutamine, ammonia); conditions: 8 hours, medium analysed
Protocol: SF188 cells stably expressing Bcl-xL were treated with AktiVIII at doses ranging from 0-20 μM. Medium was collected and analyzed for glucose, lactate, glutamine, and ammonia. The rates shown were calculated from the difference in metabolite concentration between the medium at the time point shown and fresh medium. The data points presented are the mean±SD of triplicate samples.
SF188 cells stably expressing Bcl-xL were plated at a density of 4×10^5 cells in E-well plate format, and incubated in DMEM with 10% FCS for 36 hours prior to treatment with AKT inhibitor VIII (Calbiochem) at 0, 0.1, 2, 5, and 10 μM concentrations in triplicate. After 8 hours, medium samples were collected for metabolite analysis, and viable cells were counted using trypan blue exclusion.
Media glucose, glutamine, lactate, and ammonia concentrations were analyzed using the Nova Biomedical Flex Analyzer (Waltham, Mass.).

SF188 cells [2] = assay: AOA dose-finding, viability of SF188 cells; conditions: doses 500 nM-500 μM, viability 24 h post-treatment
Protocol: SF188 cells (UC Brain Tumor Research Center, SF, CA) and SV40-immortalized MEF stably transfected with MycER (a gift from Drs. A T Tikhonenko and R. A. Amaravadi of University of Pennsylvania, Philadelphia, Pa.) were cultured in DMEM (Invitrogen), 10% FBS (Gemini Biosystems), 100 units/ml Penicillin, 100 ug/ml Streptomycin, 25 mM glucose, and 6 mM L-glutamine at 37° C. in a 5% CO2 incubator. To avoid depleting […], all experiments were carried out under subconfluent conditions. For glutamine starvation experiments, DMEM without glutamine (Invitrogen) was supplemented with 10% dialyzed FBS (Gemini Biosystems). For metabolic tracing experiments, DMEM without glutamine and with 10% dialyzed FBS was supplemented with either L-glutamine that was unenriched or with L-[U-^13C5]glutamine (Isotec), [U-^14C5]glutamine (GE Amersham), and [γ-^15N]glutamine (Cambridge Isotope Laboratories). DMEM without glucose (Sigma) was supplemented with [U-^14C6]glucose (Sigma). To activate MycER, cells were incubated with 200 nM 4-hydroxytamoxifen for 24 hours.
SF188 cells were treated with AOA (Sigma) at doses ranging from 500 nM-500 μM and viability was assessed 24 h post-treatment. Moreadith R W & Lehninger A L (1984) J. Biol. Chem. 259(10):6215-6221. […] After allowing to plate overnight, cells were treated with 500 μM for 24 h, and then viability was assessed using trypan blue dye exclusion.

shCTRL SF188 cells = assay: AOA treatment of SF188 cells transduced with control shRNA, viability by trypan blue dye exclusion; conditions: P<0.01
Protocol: (§1) (A) Myc-suppressed SF188 cells are resistant to glutamine starvation. shMYC and shCTRL SF188 cells, described in FIG. 3B, were allowed to plate in the presence of glutamine and then cultured in the absence of glutamine. Cell viability was determined at the time points shown by trypan blue dye exclusion. The data points shown represent the mean±SD of triplicate samples. (B) Myc-suppressed SF188 cells are resistant to an inhibitor of glutaminolysis. shMYC and shCTRL SF188 cells, described in FIG. 3B, were allowed to plate in the presence of glutamine and then were treated with 500 μM aminooxyacetate (AOA). Cell viability was determined at the time points shown by trypan blue dye exclusion. AOA-treated shCTRL cells were also treated with 7 mM dimethyl α-ketoglutarate (AOA+α-ketoglutarate). The data points shown represent the mean±SD of triplicate samples.
(§2) Lentivirus was packaged in 293T cells co-transfected with pLKO.1-puro c-Myc or Luciferase-control shRNA plasmid (Sigma) in addition to the pVSV-G and pCMVdelta8.2 helper plasmids using lipofectamine 2000 (Sigma). […]
(§3) SF188 cells were treated with AOA (Sigma) at doses ranging from 500 nM-500 μM and viability was assessed 24 h post-treatment. […] After allowing to plate overnight, cells were treated with 500 μM for 24 h, and then viability was assessed using trypan blue dye exclusion.

shMYC SF188 cells = assay: AOA treatment of SF188 cells transduced with MYC-shRNA, viability by trypan blue dye exclusion; conditions: 500 μM AOA, 24 h, P<0.01
Protocol: as §1, §2, §3

SF188 cells [3] = assay: Glutamine starvation of SF188 cells with alpha-ketoglutarate replacement, viability by trypan blue dye exclusion; conditions: glutamine replaced with 7 mM dimethyl α-ketoglutarate, 25 mM glucose in medium
Protocol: FIG. 1 concerns glutamine catabolism in the human glioma line SF188. (A) Protein synthesis is a minor fate of glutamine carbon. SF188 cells were cultured in medium supplemented with 0.01% [^14C-U5]glutamine relative to unenriched glutamine for 4 h. [^14C-U5]glutamine in SSA precipitated protein (striped bar) and total glutamine consumed from the medium (grey bar) are presented as the mean±standard deviation (SD) of four independent experiments. (B) The requirement for glutamine can be satisfied by alpha-ketoglutarate. SF188 cells were allowed to plate in complete medium and then cultured in either glutamine-depleted medium (−glutamine), complete medium (+glutamine), or glutamine-depleted medium supplemented with 7 mM dimethyl α-ketoglutarate (−glutamine +α-ketoglutarate). Cell viability was determined at the time points shown by trypan blue dye exclusion. The data presented are the mean±SD of triplicate samples. Representative data from one of three independent experiments are shown.
SF188 cells (UC Brain Tumor Research Center, SF, CA) and SV40-immortalized MEF stably transfected with MycER (a gift from Drs. A T Tikhonenko and R. A. Amaravadi of University of Pennsylvania, Philadelphia, Pa.) were cultured in DMEM (Invitrogen), 10% FBS (Gemini Biosystems), 100 units/ml Penicillin, 100 ug/ml Streptomycin, 25 mM glucose, and 6 mM L-glutamine at 37° C. in a 5% CO2 incubator. […]

SMILES: O=c1[nH]c2ccccc2n1C1CCN(Cc2ccc(-c3nc4cc5[nH]cnc5cc4nc3-c3ccccc3)cc2)CC1 [AKT inhibitor VIII]
- ammonia production [1]: neither glutamine metabolism nor ammonia production was inhibited
- glucose metabolism (consumption) [1]: suppressed glucose metabolism and lactate production in a dose-dependent fashion
- glutamine metabolism (consumption) [1]: neither glutamine metabolism nor ammonia production was inhibited
- lactate production [1]: suppressed glucose metabolism and lactate production in a dose-dependent fashion

SMILES: NOCC(=O)O [AOA, aminooxyacetate]
- lowest dose that killed a significant fraction of the cells (SF188 cells [2]): 500 µM
- cell viability / death of cells transduced with control shRNA (shCTRL SF188 cells; 500 μM AOA, 24 h, trypan blue dye exclusion): selectively induced the death
- cell viability of cells transduced with MYC-shRNA (shMYC SF188 cells): without affecting the viability

SMILES: COC(=O)CCC(=O)C(=O)OC [dimethyl α-ketoglutarate]
- cell death in glutamine-deficient medium (SF188 cells [3]): suppressed the cell death
- reversal of AOA-induced toxicity (death) (shCTRL SF188 cells; 7 mM dimethyl α-ketoglutarate added to AOA-treated SF188 parental and control transduced cells): completely suppressed the death
